Source: ChEMBL document CHEMBL1201862, “PubChem BioAssay data set” (2004)
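Tested at 5 concentrations; 48 h exposure; 96-well plates; endpoints linearly interpolated, else capped at highest concentration. The concentration for 50% growth inhibition is given as GI50.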 Activity calls are given as the source filed them. Cut-off read from the data, not from the text of the source: active = GI50 up to about 1.1 µM and inactive = higher.

Key:
Assay in all cases: growth of human tumour cells (NCI), 48 h
SK-OV-3 = test system: SK-OV-3
IGROV-1 = test system: IGROV-1
NCI-H460 = test system: NCI-H460
RPMI-8226 = test system: RPMI-8226
HCT-116 = test system: HCT-116
SF-295 = test system: SF-295
LXFL 529 = test system: LXFL 529
SN12C = test system: SN12C
NCI-H226 = test system: NCI-H226
SNB-19 = test system: SNB-19
HOP-92 = test system: HOP-92
SW-620 = test system: SW-620
UO-31 = test system: UO-31
UACC-62 = test system: UACC-62
HCC 2998 = test system: HCC 2998
Malme-3M = test system: Malme-3M
MDA-MB-231 = test system: MDA-MB-231
T47D = test system: T47D
Hs-578T = test system: Hs-578T
MDA-N = test system: MDA-N

Measured: GI50

Nc1nc(Cl)cc(NCCCCCCCCNc2cc(Cl)nc(N)n2)n1
inactive: SK-OV-3 > 100 µM | IGROV-1 23.7 µM | NCI-H460 31.3 µM | RPMI-8226 2.4 µM | HCT-116 2.39 µM | SF-295 1.48 µM | LXFL 529 1.86 µM | SN12C 57.4 µM | NCI-H226 6.24 µM | SNB-19 > 100 µM | HOP-92 7.76 µM | SW-620 36.8 µM | UO-31 22 µM | UACC-62 1.36 µM | HCC 2998 65.6 µM

O=C(O)c1c([N+](=O)[O-])cc(C(F)(F)F)cc1[N+](=O)[O-]
inactive: IGROV-1 > 100 µM | NCI-H460 > 100 µM | RPMI-8226 > 100 µM | HCT-116 > 100 µM | SF-295 > 100 µM | LXFL 529 > 100 µM | SN12C > 100 µM | NCI-H226 > 100 µM | SNB-19 > 100 µM | HOP-92 74.6 µM | SW-620 > 100 µM | UO-31 > 100 µM

O=C1O[C@H](c2ccccc2)[C@@H]2CC3(CCN12)OCCO3
inactive: IGROV-1 > 100 µM | NCI-H460 > 100 µM | RPMI-8226 > 100 µM | HCT-116 > 100 µM | SF-295 > 100 µM | LXFL 529 > 100 µM | SN12C > 100 µM | NCI-H226 > 100 µM | SNB-19 > 100 µM | HOP-92 69.2 µM | SW-620 > 100 µM | UO-31 > 100 µM | UACC-62 > 100 µM

CC(CCCOC(c1ccccc1)(c1ccccc1)c1ccccc1)OC(=O)Nc1ccccc1 (stereo unspecified)
inactive: SK-OV-3 14.2 µM | IGROV-1 16.4 µM | NCI-H460 11.7 µM | RPMI-8226 15 µM | HCT-116 11.1 µM | SF-295 12.7 µM | LXFL 529 13.2 µM | SN12C 12 µM | NCI-H226 12.6 µM | Malme-3M 15.8 µM | HOP-92 10 µM | SW-620 14.4 µM | UO-31 11.6 µM | UACC-62 12.8 µM | HCC 2998 14.1 µM

COc1cc2cnc3c4cc(OC(C)C)c(OC)cc4ccc3c2cc1OC
inactive: SK-OV-3 > 100 µM | IGROV-1 > 100 µM | NCI-H460 > 100 µM | RPMI-8226 > 100 µM | HCT-116 > 100 µM | SF-295 > 100 µM | LXFL 529 > 100 µM | SN12C > 100 µM | Malme-3M > 100 µM | SNB-19 > 100 µM | SW-620 > 100 µM | UO-31 > 100 µM | UACC-62 > 100 µM | HCC 2998 > 100 µM

Sc1ncc(-c2cncc(-c3cnc(S)nc3)n2)cn1
inactive: SK-OV-3 > 100 µM | IGROV-1 > 100 µM | NCI-H460 > 100 µM | RPMI-8226 > 100 µM | HCT-116 > 100 µM | SF-295 > 100 µM | MDA-MB-231 > 100 µM | SN12C > 100 µM | T47D > 100 µM | NCI-H226 > 100 µM | Hs-578T > 100 µM | Malme-3M > 100 µM | SNB-19 > 100 µM | MDA-N > 100 µM | HOP-92 > 100 µM | SW-620 > 100 µM | UO-31 > 100 µM | UACC-62 > 100 µM | HCC 2998 > 100 µM

CC(=O)N1[C@H](C(=O)O)CS[C@H]1c1ccc(F)cc1
inactive: IGROV-1 > 100 µM | NCI-H460 > 100 µM | HCT-116 29.1 µM | SF-295 > 100 µM | LXFL 529 > 100 µM | SN12C > 100 µM | NCI-H226 > 100 µM | Malme-3M > 100 µM | SNB-19 > 100 µM | HOP-92 > 100 µM | SW-620 > 100 µM | UO-31 > 100 µM | HCC 2998 > 100 µM

O=C1OC(=O)C23CSCC12C1C=CC3O1 (stereo unspecified)
inactive: SK-OV-3 > 100 µM | IGROV-1 > 100 µM | NCI-H460 > 100 µM | RPMI-8226 > 100 µM | HCT-116 > 100 µM | SF-295 > 100 µM | LXFL 529 > 100 µM | SN12C > 100 µM | NCI-H226 > 100 µM | Malme-3M > 100 µM | SNB-19 > 100 µM | SW-620 > 100 µM | UO-31 > 100 µM | UACC-62 > 100 µM | HCC 2998 > 100 µM

N#CC1CC2(C1)OCCS2 (stereo unspecified)
inactive: IGROV-1 > 100 µM | NCI-H460 > 100 µM | RPMI-8226 > 100 µM | HCT-116 > 100 µM | SF-295 > 100 µM | LXFL 529 > 100 µM | SN12C > 100 µM | NCI-H226 > 100 µM | SNB-19 > 100 µM | SW-620 > 100 µM | UO-31 > 100 µM | UACC-62 > 100 µM | HCC 2998 > 100 µM

CCC1(C(=O)OC)CCc2c(OC)ccc(OC)c2C1=O (stereo unspecified)
inactive: SK-OV-3 > 100 µM | IGROV-1 > 100 µM | NCI-H460 > 100 µM | RPMI-8226 > 100 µM | HCT-116 > 100 µM | SF-295 > 100 µM | LXFL 529 > 100 µM | SN12C > 100 µM | Malme-3M > 100 µM | SNB-19 > 100 µM | SW-620 > 100 µM | UO-31 > 100 µM | UACC-62 > 100 µM | HCC 2998 > 100 µM

C/C(CCn1[nH]c(=O)ccc1=O)=N\NC(=O)C(N)=O
inactive: IGROV-1 > 100 µM | NCI-H460 > 100 µM | HCT-116 > 100 µM | SF-295 > 100 µM | LXFL 529 > 100 µM | SN12C > 100 µM | NCI-H226 > 100 µM | Malme-3M > 100 µM | SNB-19 > 100 µM | HOP-92 > 100 µM | SW-620 > 100 µM | UO-31 > 100 µM | UACC-62 > 100 µM | HCC 2998 > 100 µM

Cc1nc(Nc2ccc([N+](=O)[O-])cc2)sc1C(/C=C/c1ccc(N(C)C)cc1)=N/NC(=O)c1ccccc1
inactive: SK-OV-3 > 100 µM | IGROV-1 51.3 µM | NCI-H460 59.6 µM | HCT-116 63.7 µM | SF-295 56 µM | LXFL 529 29.1 µM | SN12C 59.3 µM | NCI-H226 63 µM | Malme-3M 70 µM | SNB-19 62.2 µM | HOP-92 6.82 µM | SW-620 45.6 µM | UO-31 89.3 µM | UACC-62 4.84 µM | HCC 2998 41.3 µM

O=C(O)C1C2CC3CC2CC31 (stereo unspecified)
inactive: SK-OV-3 > 100 µM | IGROV-1 > 100 µM | NCI-H460 > 100 µM | RPMI-8226 > 100 µM | HCT-116 > 100 µM | SF-295 > 100 µM | LXFL 529 > 100 µM | SN12C > 100 µM | Malme-3M > 100 µM | SNB-19 > 100 µM | HOP-92 > 100 µM | SW-620 > 100 µM | UO-31 > 100 µM | UACC-62 > 100 µM

Clc1ccccc1C1N2CCCCC2[C@@H]2c3[nH]c4ccccc4c3CCN12 (stereo partly specified)
inactive: SK-OV-3 21.6 µM | IGROV-1 35.1 µM | NCI-H460 19.4 µM | RPMI-8226 23.8 µM | HCT-116 18.5 µM | SF-295 25.4 µM | LXFL 529 31 µM | SN12C 16.7 µM | Malme-3M 4.84 µM | SNB-19 23 µM | HOP-92 41.7 µM | SW-620 17.3 µM | UO-31 19.5 µM | UACC-62 15 µM | HCC 2998 18.6 µM
